Assay results as given in US12011444B2, “N-substituted indole derivatives as PGE2 receptor modulators” (Idorsia Pharmaceuticals Ltd, priority 2015, dated 2024).
Read-outs that look alike come from different tables or passages of the source.

Columns and labels:
EP2 [1] = target: T1, EP2 (Homo sapiens (Human), UniProt P43116); experiment: cell-based;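 also: antagonism of PGE2-stimulated cAMP accumulation in SF295 human glioblastoma cells with endogenous EP2, cAMP read by HTRF, expressed relative to DMSO control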
EP4 = EP4 (Homo sapiens (Human), UniProt P35408); experiment: hEP4 cAMP assay (BT549 breast cancer cells, HTRF cAMP); format: cell-based; settings: antagonistic activity; mean values where measured multiple times
Method: Plate is pre-incubated 45 minutes at room temperature. Subsequently, 2.5 microliters of PGE2 (final conc. 6 nM) are transferred into the assay plate. Plate is incubated 30 minutes at room temperature.

EP2 [2] = target: T1, EP2

EP4, sequence (P35408 whole entry): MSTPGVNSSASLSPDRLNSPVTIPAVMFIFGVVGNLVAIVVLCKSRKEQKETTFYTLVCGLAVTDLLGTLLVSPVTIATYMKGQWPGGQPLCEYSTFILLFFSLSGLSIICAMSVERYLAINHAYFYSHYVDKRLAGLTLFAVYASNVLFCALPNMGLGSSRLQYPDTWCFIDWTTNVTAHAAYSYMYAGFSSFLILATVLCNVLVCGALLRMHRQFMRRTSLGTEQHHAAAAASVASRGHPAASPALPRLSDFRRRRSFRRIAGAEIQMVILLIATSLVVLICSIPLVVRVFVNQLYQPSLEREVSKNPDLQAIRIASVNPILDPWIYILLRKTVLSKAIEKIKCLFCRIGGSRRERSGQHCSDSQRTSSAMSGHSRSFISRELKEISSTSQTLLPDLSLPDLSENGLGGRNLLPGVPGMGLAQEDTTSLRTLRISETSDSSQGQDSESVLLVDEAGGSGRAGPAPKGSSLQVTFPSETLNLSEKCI
T1 sequence (P43116 whole entry): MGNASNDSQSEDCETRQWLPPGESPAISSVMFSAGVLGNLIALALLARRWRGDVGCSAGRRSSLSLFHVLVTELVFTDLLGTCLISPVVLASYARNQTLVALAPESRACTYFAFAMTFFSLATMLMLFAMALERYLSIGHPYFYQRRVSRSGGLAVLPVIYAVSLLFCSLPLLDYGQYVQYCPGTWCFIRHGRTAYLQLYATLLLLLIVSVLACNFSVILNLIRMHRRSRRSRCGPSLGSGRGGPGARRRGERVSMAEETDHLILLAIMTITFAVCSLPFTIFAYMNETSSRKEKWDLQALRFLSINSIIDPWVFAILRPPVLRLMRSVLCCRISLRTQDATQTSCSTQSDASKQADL

IC50 (EP2 [1]) [nM] | IC50 (EP4) [nM] | IC50 (EP2 [2]) [nM] | Compound
309 | 798 | – | CCOc1cc(-c2cc(NCC(C)n3c(C)cc4c(OC)ccc(F)c43)ncn2)ccc1C(=O)O (racemic) [Example 794, rac-2-Ethoxy-4-{6-[2-(7-fluoro-4-methoxy-2-methyl-indol-1-yl)-propylamino]-pyrimidin-4-yl}-benzoic acid]
24 | 224 | – | COc1cccc2c1cc(C)n2CCNc1cc(-c2ccc3c(c2)C(CC(C)C)NC3=O)ncn1 (racemic) [compound 461]
149 | 511 | – | CCOc1cc(-c2cc(NCCn3c(C)cc4c(OC)ccc(F)c43)ncn2)ccc1C(O)C(F)(F)F (racemic) [compound 571]
22 | 224 | – | COc1ccc(F)c2c1cc(C)n2CCNc1cc(-c2ccc3c(c2)C(CC(C)C)NC3=O)ncn1 (racemic) [compound 474]
85 | 306 | – | COc1ccc(F)c2c1cc(C)n2C(C)CNc1cc(-c2ccc(C(=O)O)c(CC(C)C)c2)ncn1 (racemic) [Example 795, rac-4-{6-[2-(7-Fluoro-4-methoxy-2-methyl-indol-1-yl)-propylamino]-pyrimidin-4-yl}-2-isobutyl-benzoic acid]
59 | 264 | – | Cc1ccc(F)c2c1cc(C)n2CCNc1cc(-c2ccc3c(c2)C(CC(C)C)NC3=O)ncn1 (racemic) [compound 468]
– | 986 | 686 | Cc1cc2c(F)ccc(C#N)c2n1CCNc1cc(-c2ccc(C(=O)O)c(CC(C)C)c2)ncn1 [compound 482]
– | 234 | 12 | CCCc1cc(-c2cc(NCCn3c(C)cc4c(OC)ccc(Cl)c43)ncn2)ccc1C(=O)O [compound 442]
– | 9 | 3 | COc1cc(F)cc2c1cc(C)n2CCNc1cc(-c2cc(OC(C)C)c(C(=O)O)s2)ncn1 [compound 676]
– | 418 | 6 | CCCOc1cc(-c2cc(NCCn3c(C)cc4c(OC)cccc43)ncn2)ccc1C(=O)O [compound 400]
– | 170 | 70 | COc1cc(-c2cc(NCCn3c(C)cc4c(C)ccc(F)c43)ncn2)ccc1-c1nnn[nH]1 [Example 748, [2-(7-Fluoro-2,4-dimethyl-indol-1-yl)-ethyl]-{6-[3-methoxy-4-(1H-tetrazol-5-yl)-phenyl]-pyrimidin-4-yl}-amine]
– | 175 | 15 | CCOc1cc(-c2cc(NCCn3c(Cl)cc4c(Cl)ccc(F)c43)ncn2)ccc1C(=O)O [Example 778, 4-{6-[2-(2,4-Dichloro-7-fluoro-indol-1-yl)-ethylamino]-pyrimidin-4-yl}-2-ethoxy-benzoic acid]
– | 429 | 16 | COc1cc(F)c(F)c2c1cc(C)n2CCNc1cc(-c2ccc(C(=O)CC#N)cc2)ncn1 [compound 711, 3-(4-{6-[2-(6,7-Difluoro-4-methoxy-2-methyl-indol-1-yl)-ethylamino]-pyrimidin-4-yl}-phenyl)-3-oxo-propionitrile]
– | 430 | 483 | COc1cc(F)cc2c1cc(C)n2CCNc1cc(-c2ccc3[nH]c(C(F)(F)F)nc3c2)ncn1 [compound 640]
– | 88 | 3 | CCCCOc1cc(-c2cc(NCCn3c(C)cc4c(C)ccc(F)c43)ncn2)ccc1C(=O)O [compound 533]
17 | 75 | – | CCCC1NC(=O)c2ccc(-c3cc(NCCn4c(C)cc5c(OC)ccc(F)c54)ncn3)cc21 (racemic) [compound 465]
– | 247 | 14 | Cc1cc2c(Cl)cc(Cl)cc2n1CCNc1cc(-c2ccc(-c3noc(=O)[nH]3)cc2)ncn1 [compound 681, 3-(4-{6-[2-(4,6-Dichloro-2-methyl-indol-1-yl)-ethylamino]-pyrimidin-4-yl}-phenyl)-4H-[1,2,4]oxadiazol-5-one]
– | 707 | 765 | CCOc1cc(-c2cc(NCCn3c(C)cc4c(OC)c(Cl)cc(F)c43)ncn2)ccc1C(=O)O [compound 491]
– | 418 | 54 | COc1ccc(F)c2c1cc(C)n2CCNc1cc(-c2cccc(-n3cccn3)c2)ncn1 [compound 556]
– | 24 | 15 | COc1cc(F)c(F)c2c1cc(C)n2CCNc1cc(-c2ccc3[nH]ccc3c2)ncn1 [compound 701, [2-(6,7-Difluoro-4-methoxy-2-methyl-indol-1-yl)-ethyl]-[6-(1H-indol-5-yl)-pyrimidin-4-yl]-amine]
– | 16 | 9 | CNc1nnc(-c2ccc(-c3cc(NCCn4c(C)cc5c(OC)cc(F)cc54)ncn3)cc2)s1 [compound 645]
– | 178 | 18 | COc1ccc(F)c2c1cc(C)n2CCNc1cc(-c2ccc(-c3ccccn3)cc2)ncn1 [compound 590]
– | 923 | 6 | Cc1cc2ccccc2n1CCNc1cc(-c2ccc(-c3nnn[nH]3)c(O)c2)ncn1 [Example 789, 5-{6-[2-(2-Methyl-indol-1-yl)-ethylamino]-pyrimidin-4-yl}-2-(1H-tetrazol-5-yl)-phenol]
– | 78 | 5 | COc1cccc2c1cc(C)n2CCNc1cc(-c2ccc(-c3nc(C(=O)O)cs3)cc2)ncn1 [compound 557]
– | 259 | 54 | COc1ccc(F)c2c1cc(C)n2CCNc1cc(-c2ccc3c(c2)CN(CC(C)C)C3=O)ncn1 [compound 475]
